These results are taken from article PMC9848351, “Discovery of new pyridine-quinoline hybrids as competitive and non-competitive PIM-1 kinase inhibitors with apoptosis induction and caspase 3/7 activation capabilities” (Journal of Enzyme Inhibition and Medicinal Chemistry, 2023).

As usually defined, the IC50 is the concentration at which inhibition is half-maximal. Usually EC50 stands for the concentration needed to bring the measured effect to its halfway point. A higher EC50 goes with a less potent agent.

In series [1] the test system is liver cancer cell line (HepG-2). Briefly: MTT anticancer activity, HepG-2. In kind it is cell-based, human. As to conditions: Homo sapiens, HepG2; HepG-2, 72 h, MTT; mean ± SEM. In outline: (§1)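 Cells seeded at 5x10^3/well (Caco-2 in DMEM, others in RPMI-1640, 10% FBS) and exposed to serial compound concentrations for 72 h at 37 °C, 5% CO2, starting 24 h after seeding. MTT (3 h, 37 °C) read at 570 nm after DMSO solubilisation; IC50 calculated from viability.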

Series [2] has as its system myeloid leukaemia cell line (NFS-60). The series is described as follows: MTT anticancer activity, NFS-60. As to conditions: NFS-60, 72 h, MTT; mean ± SEM. In kind it is cell-based. In outline: as §1
In series [3] the test system is normal human lung fibroblast Wi-38 cell line. Briefly: MTT cytotoxicity on normal cells. It counts as cell-based. In short, it runs like this:
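Wi-38 fibroblasts in DMEM with 10% FBS were seeded at 5x10^3 cells/well, left 24 h to attach, then exposed to serial compound concentrations for 72 h at 37 °C, 5% CO2. MTT was added for 3 h, formazan dissolved in DMSO and absorbance read at 570 nm. IC50 and EC100 (safe dose) were estimated from the concentration series.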

In a further series the test system is NFS-60. Briefly: Flow cytometric annexin V/PI analysis of apoptosis, NFS-60. In kind it is cell-based, human. As to conditions: IC50 of compound, 72 h, mean ± SEM. How it is done:
(§2) The apoptosis-dependent […] was determined by quantification of annexin-stained apoptotic cells using the FITC signal detector (FL1) against the phycoerythrin emission signal detector (FL2) (Supplementary Page S55). […]
(§3) MTT method was used for assaying cell viability 25. Twenty microliters of 5 mg/ml MTT (Sigma, USA) was added to each well and the plate was incubated at […]
(§4) 37 °C for 3 h. […]
(§5) Graphpad Instat software.
(§6) Determination of the anticancer activity
(§7) Anticancer effect of the above-mentioned compounds was evaluated using four human cancer cell lines. Colon cancer cells (Caco-2) were maintained in DMEM (Lonza, USA) containing 10% FBS while myeloid leukemia cell line (NFS-60), liver cancer cell line (HepG-2) and prostate cancer cell line (PC-3) were cultured in RPMI-1640 (Lonza, USA) supplemented with 10% FBS. All cancer cells (5x10^3 cells/well) were seeded in sterile 96-well plates. After 24h, serial concentrations of the tested compounds and Dox were incubated with four cancer cell lines for 72 h at 37 °C in 5% CO2 incubator. MTT method was done as described above. The Graphpad Instat software was used for calculating the half maximal inhibitory concentration (IC50) values. […]
(§8) Flow cytometric analysis of apoptosis
(§9) Caco-2, PC-3 and NFS-60 cell lines. After trypsinization, the untreated and treated cells were incubated with annexin V/PI for 15 min. Then cells were fixed and incubated with streptavidin-fluorescein (5 µg/mL) for 15 min. The apoptosis-dependent anticancer effect was determined by quantification of annexin-stained apoptotic cells using the FITC signal detector (FL1) against the phycoerythrin emission signal detector (FL2). […]
(In flow cytometry, cells or beads pass a laser one at a time.)

For series [4], the target named is T1, PIM-1 kinase (Homo sapiens, UniProt P11309). Briefly: PIM-1 kinase inhibitory activity (Promega kinase assay kit).
T1 sequence (P11309 whole entry): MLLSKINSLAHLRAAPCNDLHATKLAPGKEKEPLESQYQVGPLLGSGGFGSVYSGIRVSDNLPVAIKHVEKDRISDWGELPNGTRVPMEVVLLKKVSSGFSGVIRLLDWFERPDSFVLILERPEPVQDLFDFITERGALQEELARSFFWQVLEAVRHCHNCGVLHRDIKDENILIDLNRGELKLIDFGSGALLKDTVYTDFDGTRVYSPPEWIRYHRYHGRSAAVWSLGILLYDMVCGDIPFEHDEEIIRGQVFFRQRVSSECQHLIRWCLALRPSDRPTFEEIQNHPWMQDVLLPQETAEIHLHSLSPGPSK
The target of a further series is PIM-2 kinase (Homo sapiens, UniProt Q9P1W9). The series is described as follows: PIM-2 kinase inhibitory activity (Promega kinase assay kit).
Sequence of PIM-2 kinase (Q9P1W9 whole entry): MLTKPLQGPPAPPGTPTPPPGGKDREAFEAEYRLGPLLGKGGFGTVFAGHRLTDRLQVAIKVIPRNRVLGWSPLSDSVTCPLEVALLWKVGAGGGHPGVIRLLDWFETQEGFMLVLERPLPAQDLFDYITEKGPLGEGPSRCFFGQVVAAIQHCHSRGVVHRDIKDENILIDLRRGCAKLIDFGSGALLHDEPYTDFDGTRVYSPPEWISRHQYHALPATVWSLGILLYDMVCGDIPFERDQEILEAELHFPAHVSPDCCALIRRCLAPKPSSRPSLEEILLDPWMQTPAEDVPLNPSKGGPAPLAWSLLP
The subject of series [5] is Colon cancer cells (Caco-2). Briefly: MTT anticancer activity, Caco-2. In kind it is cell-based, human. In short, it runs like this: as §1
Series [6] addresses T1, PIM-1 kinase. Briefly: Mechanism of PIM-1 kinase inhibition, Lineweaver–Burk double-reciprocal plot. It counts as biochemical. Further details: purchased Promega Corporation #V4032.
In a further series the test system is PC-3. The series is described as follows: Flow cytometric annexin V/PI analysis of apoptosis, PC-3. As to conditions: IC50 of compound, 72 h, mean ± SEM. In kind it is cell-based, human. How it is done: as §2, §3, §4, §5, §6, §7, §8, §9
Series [7] concerns prostate cancer cell line (PC-3). Briefly: MTT anticancer activity, PC-3. It counts as cell-based, human. Conditions: Homo sapiens, 72 h, PC-3, 72 h, mean ± SEM. In short, it runs like this: as §1
The test system of another series is HepG-2. Briefly: Flow cytometric annexin V/PI analysis of apoptosis, HepG-2. It counts as cell-based, human. Conditions: IC50 of compound, 72 h, mean ± SEM.
The subject of series [8] is HepG-2, Caco-2, NFS-60, and PC-3 cancer cell lines. It counts as cell-based, human. The protocol:
as §2
(§10) MTT method was used for assaying cell viability 25. Twenty microliters of 5 mg/ml MTT (Sigma, USA) was added to each well and the plate was incubated at 37 °C for 3 h. Then MTT solution was removed, 100 µl DMSO was used and the absorbance of each well was measured with a microplate reader ( BMG LabTech, […]
(§11) Germany) at 570 nm. […]
as §5, §6
Anticancer effect of the above-mentioned compounds was evaluated using four human cancer cell lines. Colon cancer cells (Caco-2) were maintained in DMEM (Lonza, USA) containing 10% FBS while myeloid leukemia cell line (NFS-60), liver cancer cell line (HepG-2) and prostate cancer cell line (PC-3) were cultured in RPMI-1640 (Lonza, USA) supplemented with 10% FBS. All cancer cells (5x10^3 cells/well) were seeded in sterile 96-well plates. […]
Caco-2, PC-3 and NFS-60 cell lines. […] The apoptosis-dependent anticancer effect was determined by quantification of annexin-stained apoptotic cells using the FITC signal detector (FL1) against the phycoerythrin emission signal detector (FL2). […]

The test system of the next series is Caco-2. Briefly: Flow cytometric annexin V/PI analysis of apoptosis, Caco-2. As to conditions: IC50 of compound, 72 h, mean ± SEM. It counts as cell-based. The protocol: as §2, §10, §11, §5, §6
Anticancer effect of the above-mentioned compounds was evaluated using four human […]
cancer cell lines. […]
All cancer cells (5x10^3 cells/well) were seeded in sterile
96-well plates. After 24h, serial concentrations of the tested compounds and Dox were incubated with four cancer cell lines for 72 h at 37 °C in 5% CO2 incubator. MTT method was done as described above. The Graphpad Instat software was used for calculating the half maximal inhibitory concentration (IC50) values. […]
as §8, §9

The test system of series [9] is caspase 3/7 in HepG-2 cells. The series is described as follows: Caspase 3/7 activation assay (Apo-ONE kit). It counts as cell-based, human. Conditions: caspase 3/7, relative to untreated HepG2 cells; mean ± SEM. An excerpt: The percentage of caspase 3/7 activation was quantified using the Apo-ONE ® caspase 3/7 kit following the manufacturer’s instructions[27] (Supplementary Page S56).
It’s a fluorescence assay that measures caspase-3 and −7 activities. Caspase 3/7 activators are well known as apoptotic inducers.
Caspase 3/7 activation assay
The Apo-ONE ® caspase 3/7 kit following the manufacturer’s instructions was used for quantifying the percentage of caspase 3/7 activation. The fluorescence substrate present in the kit was cut by caspases to produce fluorescence signal. This signal was measured by the fluorescence omega microplate reader (BMG LabTech, Germany) at 490 nm excitation and 520 nm emission.
Data were expressed as mean ± standard error of the mean (SEM). Statistical significance was estimated by the multiple comparisons Tukey post-hoc analysis of variance (ANOVA) using the SPSS16 program. When p < 0.05, the differences were marked as statistically significant.
PIM-1 and PIM-2 kinase inhibitory activity
PIM-1 and PIM-2 kinase utilizing PIM-1 and PIM-2 Kinase Assay Kit – Promega Corporation catalog #V4032, following the manufacturer’s instructions 26 […]
Information Classification: General

Regarding `COc1ccc2nc(N3CCCCC3)c(-c3cc(-c4cccc(O)c4)nc(S)c3C#N)cc2c1` [6e, 6-(3-Hydroxyphenyl)-4-(6-methoxy-2-(piperidin-1-yl)quinolin-3-yl)-2-mercaptopyridine-3-carbonitrile], the IC50 was 12.2 ± 0.1 nM in [1]; 53.9 ± 0.1 nM in series [2]; 1100 nM against PIM-1 kinase [4]; 1490 nM against PIM-2 kinase; 27 ± 2 nM in series [5] (Homo sapiens, Caco-2, 72 h, MTT, mean ± SEM); 42.9 ± 3 nM in series [7]. Moreover, in series [3] (Homo sapiens, Wi-38, 72 h, MTT, 50% cell viability, mean ± SEM), the EC50 turned out to be 155 ± 3 nM. Moreover, the “Wi-38 EC100” value in series [3] (Wi-38, 72 h, MTT, safe dose, 100% cell viability, mean ± SEM) came to 0.0277 ± 0.0001 µM. Further, the “total percentage of the apoptotic cell population, NFS-60” value with NFS-60 is reported as 68.385 ± 0.54%. The “Caco-2 LE” value in [5] (ligand efficiency from IC50 and number of heavy atoms) amounted to 0.30. Also, the “Caco-2 LLE” value in [5] (ligand lipophilic efficiency, potency in terms of lipophilicity) was determined as 2.73. In addition, the “Caco-2 SI” value in series [5] (selectivity index, Wi-38 versus Caco-2) turned out to be 5.741. Moreover, the “mechanism of PIM-1 kinase inhibition” value at PIM-1 kinase [6] was “competitive inhibitors”. On PIM-1 kinase [6] (Y-intercept), the “Vmax compared with control” value was “the same Vmax in comparison with control”. Moreover, the “total percentage of the apoptotic cell population, PC-3” value with PC-3 turned out to be 68.81 ± 0.49%. Moreover, in the series with HepG-2, the “total percentage of the apoptotic cell population, HepG-2” value was determined as 69.02 ± 0.18%.
In the case of `COc1cccc2c1C(=O)c1c(O)c3c(c(O)c1C2=O)C[C@@](O)(C(=O)CO)C[C@@H]3O[C@H]1C[C@H](N)[C@H](O)[C@H](C)O1` [Dox, doxorubicin, reference compound], the IC50 was determined as 50.4 nM in series [1]; 33.2 nM in [2]; 26.6 nM in series [3] (Homo sapiens, Wi-38, MTT, read-out: IC50 on human lung fibroblasts (Wi-38)). Further, the “apoptosis-dependent death / percentage of annexin-stained population cells” value in series [8] is on record as “less than 39%”. Moreover, the “total percentage of the apoptotic cell population, NFS-60” value with NFS-60 amounted to 37.89 ± 0.28%. Moreover, in the series on Caco-2, the “total percentage of the apoptotic cell population, Caco-2” value is on record as 36.08 ± 0.23%. Moreover, in the series on PC-3, the “total percentage of the apoptotic cell population, PC-3” value is 34.59 ± 0.21%. In [9], the “Fold increase in caspase activity” value is 1.61 ± 0.088 fold. Besides, in the series on HepG-2, the “total percentage of the apoptotic cell population, HepG-2” value came to 39.265 ± 0.81%.
